Measurements published in patent US12616689B2, “Regimens of tafenoquine for prevention of malaria in malaria-naive subjects” (60 Degrees Pharmaceuticals, Inc., priority 2014, dated 2026).
Blank lines part the entries; values can stand above or below the compound they belong to.

Assays:
[1] = Population PK analysis (NONMEM one-compartment model) of plasma tafenoquine concentrations pooled from ten Phase I/II/III clinical studies, with bootstrap evaluation; format: in vivo, human; design: key to ωCL^2, variance of inter-individual random effect on CL, final NONMEM estimate / ωV^2, variance of inter-individual random effect on V, final NONMEM estimate / ωKa^2, variance of inter-individual random effect on Ka, final NONMEM estimate / ωCL^2, Bootstrap Estimate / ωV^2, Bootstrap Estimate / ωKa^2, Bootstrap Estimate: variance of ηi, where Pi = P·exp(ηi)
Protocol: Pharmacokinetic (PK) data from several studies (Phase I/II/III) was modeled to establish a consolidated model of tafenoquine and to determine relevant covariates. More specifically, analysis was performed using data obtained from ten Phase I/II/III clinical studies of tafenoquine (U.S. Army Study Numbers: 1, 2, 3, 4, 5, 14, 15, 33, 44 and 58). Table 2 summarizes the key features of each of the studies included in the pooled dataset such as the study type and design, dose and dosing regimen, population, and sample collection schemes. A total of 866 subjects were included in the population analysis. Ninety-three percent of the subjects were male.
The tafenoquine concentrations of plasma samples across the ten studies were analyzed using a validated high-performance liquid chromatography-mass spectrometry method (HPLC-MS) or HPLC with fluorescence detection as previously described (see, Kocisko D A, Walsh D S, Eamsila C, Edstein M D. Measurement of tafenoquine (WR 238605) in human plasma, and venous and capillary blood by high-pressure liquid chromatography. Ther Drug Monit. 2000; 22:184-189; Charles B G, Miller A K, Nasveld P E, Reid M G, Harris I E, Edstein M D. Population pharmacokinetics of tafenoquine during malaria prophylaxis in healthy subjects. Antimicrob Agents Chemother. 2007; 51:2709-2715.
Population PK analyses were carried out using NONMEM version 7.1.2, PDx-Pop version 4.2 (Icon Development Solutions, Hanover, MD) and Intel Visual Fortran Compiler version 12 on a Microsoft Windows XP platform. Plasma tafenoquine concentrations, demographic information and clinical laboratory results from ten studies were used to build a pooled NONMEM input data file for the current population PK analysis. The data were prepared for analysis using SAS software version 9.1.3 (SAS Institute Inc., Cary, NC). Actual dosing and actual blood sampling times, when available, were used for the analysis. Plasma tafenoquine concentrations that were below or equal to the limit of quantification were excluded from the analysis.
Based on the PK profile of tafenoquine from previous modeling efforts (Shanks G D, Oloo A J, Aleman G M, et al. A new primaquine analogue, tafenoquine (WR 238605), for prophylaxis against Plasmodium falciparum malaria. Clin Infect Dis. 2001; 33:1968-1974; Obaldia N 3rd, Rossan R N, Cooper R D, et al. WR 238605, chloroquine, and their combinations as blood schizonticides against a chloroquine-resistant strain of Plasmodium vivax in Aotus monkeys. Am J Trop Med Hyg. 1997; 56:508-10), a one-compartment PK model with first-order absorption and elimination processes was selected to describe best the pharmacokinetics of tafenoquine. As part of the modeling process, a two-compartment PK model with first-order absorption and elimination process was also explored and discarded. The one-compartment PK model was specified in the NONMEM control file and was parameterized in terms of apparent clearance (CL/F), apparent volume of distribution (V/F) and absorption rate constant (Ka) using the PREDPP ADVAN2 with TRANS2 subroutine in NONMEM. First-order conditional estimation (FOCE) with interaction between variance of inter-individual variability and the variance of residual error was used as the estimation method. Inter-individual variability was best described by an exponential error model, as shown below: Pi=Pexp(ηi) • where: • Pi is the estimated parameter for the i^th individual. • P is the population value for the parameter. • ηi are inter-individual random effects for the i^th individual for parameter P and were assumed to be independent and symmetrically distributed with a zero mean and a variance ω^2.
Different structural models (additive, proportional, exponential and combined additive and proportional) were investigated for residual unexplained variability (RUV). RUV was best described by a proportional error model, as shown below: […]

[2] = tested on: blood stages of P. falciparum; conditions: cited from earlier work
[3] = in vivo; cited from earlier work
malaria = conditions: cited from earlier work
P. berghei = conditions: cited from earlier work
[4] = cited from earlier work
[5] = tested on: chloroquine sensitive and resistant P. vivax; conditions: Aotus monkeys; cited from earlier work
[6] = tested on: Plasmodium falciparum malaria; conditions: regimens of 50, 100, 200 and 400 mg; cited from earlier work
[7] = final PK model, coefficient of variation

- COVCL,V, Bootstrap Estimate ([1]; 1000 bootstrap samples): 0.0250
- θCL, Bootstrap Estimate ([1]; 1000 bootstrap samples): 4.15
- θCL-AGE, Bootstrap Estimate ([1]; 1000 bootstrap samples): −0.200
- θCL-WT, Bootstrap Estimate ([1]; 1000 bootstrap samples): 0.554
- θKA, Bootstrap Estimate ([1]; 1000 bootstrap samples): 0.351
- θV, Bootstrap Estimate ([1]; 1000 bootstrap samples): 2482
- θV-FOOD, Bootstrap Estimate ([1]; 1000 bootstrap samples): 0.810
- θV-WT, Bootstrap Estimate ([1]; 1000 bootstrap samples): 0.774
- σ^2, Bootstrap Estimate ([1]; 1000 bootstrap samples): 0.0486
- ωCL^2, Bootstrap Estimate ([1]; 1000 bootstrap samples): 0.0536
- ωKa^2, Bootstrap Estimate ([1]; 1000 bootstrap samples): 0.283
- ωV^2, Bootstrap Estimate ([1]; 1000 bootstrap samples): 0.0521
- Inter-individual variability associated with CL/F before inclusion of covariates WT and age ([1]; base model, without covariates): 26.5%
- Inter-individual variability of V/F before inclusion of covariates WT and meal condition ([1]; base model, without covariates): 29.6%
- Vd/F ([1]; both sexes, human, plasma, oral, final PK model, WT 75 kg, fasted, read-out: θV, population apparent volume of distribution (V/F), final NONMEM estimate): 2470 L
- COVCL,V, covariance, final NONMEM estimate ([1]; final PK model): 0.0289
- θV-WT, exponent of weight effect on V/F, final NONMEM estimate ([1]; final PK model): 0.781
- σ^2, variance of the proportional residual random effect, final NONMEM estimate ([1]; final PK model): 0.0488
- ωCL^2, variance of inter-individual random effect on CL, final NONMEM estimate ([1]; final PK model): 0.0555
- ωKa^2, variance of inter-individual random effect on Ka, final NONMEM estimate ([1]; final PK model): 0.293
- ωV^2, variance of inter-individual random effect on V, final NONMEM estimate ([1]; final PK model): 0.0583
- θV-FOOD, food effect on V/F, final NONMEM estimate ([1]; final PK model, FOOD = 0 fasted, 1 fed): 0.822
- Inter-individual variability of CL/F [1, 7]: 23.6%
- Inter-individual variability of Ka [1, 7]: 54.1%
- Inter-individual variability of V/F [1, 7]: 24.1%
- Ka, first-order absorption rate constant, final NONMEM estimate ([1]; oral, final PK model): 0.359 h⁻¹
- θCL, population apparent clearance (CL/F), final NONMEM estimate ([1]; oral, final PK model, WT 75 kg, age 25 y): 4.17 L/h
SMILES: COc1cc(C)c2c(Oc3cccc(C(F)(F)F)c3)c(OC)cc(NC(C)CCCN)c2n1 (stereo not drawn) [tafenoquine, -[2,6-Dimethoxy-4-methyl-5-[3-(trifluoromethyl)phenoxy]quinolin-8-yl]pentane-1,4-diamine]
- Activity against blood stages of P. falciparum in vitro [2]: active
- Half-life [3]: weeks
- Protective efficacy (malaria; 200 mg daily for three days, then 200 mg weekly, 95% CI 93%-100%): 100%
- Malaria breakthroughs (malaria; reference regimen, non-immune, primarily Caucasian Australian soldiers): no malaria breakthroughs were observed
- Activity against P. berghei in mice in vivo (P. berghei): active
- Incidence of gastrointestinal adverse events relative to 400 mg once daily or BID for three days (total dose 1200 mg) ([4]; 200 mg once daily for three days (total dose 600 mg)): approximately half
- Threshold dose considered safe in G6PD-deficient individuals ([4]; G6PD-deficient individuals): 300 mg
- Safety and tolerability of a loading dose of 400 mg once daily for three days ([4]; G6PD-normal individuals): safe in G6PD-normal individuals in several clinical studies but exhibits gastrointestinal intolerability
- Tolerability of a 400 mg dose ([4]; human, in vivo): less well tolerated
- Cure of chloroquine sensitive and resistant P. vivax infections [5]: cured
- Reduction in microscopically confirmed parasitemia [6]: statistically significant reductions

SMILES: COc1cc(NC(C)CCCN)c2ncccc2c1 (stereo not drawn) [primaquine]
- Half-life [3]: hours
